Measurements taken from patent US5798381A, “Biologically active bistramides, process for their production and their applications in therapy” (Institut Francais de Recherche Scientifique pour le …, priority 1993, dated 1998).
≈ marks a conversion by molar mass, not a printed value. Like-named read-outs stand apart in the source and are kept apart here.

Experiments:
[1] = test system: NSCLC solid tumours (xenograft); format: in vivo, nude mouse; details: at the end of 30 days
Procedure: The anti-tumoural activity of the products of the invention was studied against solid tumours of NSCLC type grafted onto a nude mouse (D. Riou, C. Roussakis, J. F. Biard, J. F. Verbist: "Comparative study of antitumor activity of bistramides A, D and K against non-small cell bronchopulmonary carcinoma", Anticancer Research, 1993, 13, 2321-2334). Each mouse received 0.2 ml of a cell solution obtained by the mechanical dispersion of about 1 g of excised mouse tumour in 4.8 ml of a sterile saline solution. The sub-cutaneous grafted tumours were measured over their long length L and their short length 1. The tumoural volume was evaluated according to the formula Vt=L×1^2 /2. The tumoural growth on day d was calculated by the formula Vtd /Vtd0 for each mouse, Vtd0 being the tumoural volume at the start of treatment.
The curve "------.circle-solid.------ " relates to the control experiment, the curves "--- .diamond-solid.---", "-- .quadrature.--" and "-- .box-solid.--" to experiments with 10, 20 and 5 mg/kg of bistramide D respectively and the curve "----*----" to an experiment with 10 mg/kg of bistramide K. Each point represents the average tumoural growth for 6 mice.
In these experiments, bistramide K is injected at the rate of 10 mg/kg by intraperitoneal route for 16 days and bistramide D at the rate of 5 mg/kg by intraperitoneal route every day for 16 days; at 10 mg/kg by intravenous route on days 1, 5, 9, 14, and at 20 mg/kg by intravenous route on days 1, 5, 9, 14.

B16 = assay: Cytotoxicity, 50% inhibition of cell growth, B16; format: cell-based; details: Mus musculus, B16; read-out: IC50 (50% inhibition of cell growth)
Procedure: (§1) The cytoxicity results are recorded hereafter as the IC50 in μg/ml (concentration corresponding to a 50% inhibition of cell growth) on 6 tumoural lines namely KB, P388, P388/dox (resistant to doxorubicin), B16 and H429 and NSCLC-N6, which are human cells of non-small cell bronchopulmonary carcinoma type.
(§2) The determinations were carried out according to the protocol given in Cancer Chemother. Pharmacol. (1991) 28:283-292 by Roussakis et al.

mice = assay: Acute toxicity (LD50), intravenous injection in mice; format: in vivo; details: statement in words
Procedure: The LD50 of these bistramides is in fact of the order of 1.7 mg/kg (measured in mice, after injection of the product by intravenous route as a single dose).
The "LD50 " of the products of the invention has been measured for mice after injection of the products by intravenous route.

[2] = test system: Plasmodium vinckei petteri; assay: Comparison of monodose and multidose therapeutic schema; format: in vivo, Plasmodium vinckei petteri in SWISS female white mice
Procedure: The object is to monitor the parasitemia on a daily basis and to evaluate the inhibition of the parasitemia according to the therapeutic schema adopted for the treatment. The following are shown: the morphological modifications of the parasite by the parasitic formula, calculation of the parasitic formula is also carried out on smears and allows the evaluation of each stage:ring, young trophozoite, middle trophozoite, old trophozite for 100 red blood corpuscles.
a) after infestation, three batches of five mice are constituted, namely
a so-called monodose batch, for which a single injection of bistramide D (15 mg/kg) is given to the mouse on D0
a so-called multidose batch, where the injection of bistramide D is carried out by administering five doses on D0, D1, D2, D3, D4 respectively (total dose 15 mg/kg)
b) the preparation and reading of the smears is carried out every day for 21 days.
The percentage of parasitemia and the percentage inhibition of the development of the parasite is determined for each batch.

KB = assay: Cytotoxicity, 50% inhibition of cell growth, KB; format: cell-based; details: Homo sapiens, read-out: IC50 (50% inhibition of cell growth)
Procedure: as §1, §2

P388 (p388s) = assay: Cytotoxicity, 50% inhibition of cell growth, P388; format: cell-based; details: Mus musculus, P388/S; p388s; read-out: IC50 (50% inhibition of cell growth)
Procedure: as §1, §2

NSCLC.N6-L16 = assay: Cytotoxicity, 50% inhibition of cell growth, NSCLC-N6; format: cell-based; details: Homo sapiens; NSCLC.N6-L16; read-out: IC50 (50% inhibition of cell growth)
Procedure: as §1, §2

[3] = test system: Plasmodium vinckei petteri; assay: Flow cytometry study of parasitized murine red blood corpuscles; details: G1 phase, maturation stage
Text: The consequence of this is to halt the proliferation at the middle and old trophozoite stage.

For `C/C=C/C(O)CC1CCC(C)C(CC(=O)NCC(O)C(C)C(=O)NCCCC2OC3(CCCC(CCC(C)/C=C(\C)C(C)O)O3)CCC2C)O1` (centres unmarked) [Bistramide D], the “tumoural growth relative to controls (100%)” value ([1]; 5 mg/kg, IP, every day for 16 days) was 100%, the “tumoural growth relative to controls (100%)” value ([1]; 10 mg/kg, IV, days 1, 5, 9, 14) was 76% and the “tumoural growth relative to controls (100%)” value ([1]; 20 mg/kg, IV, days 1, 5, 9, 14) was 53%. The IC50 (B16) was 0.1 µg/mL (≈ 0.141 µM), the toxicity in vivo (mice) was “less toxic” and the “percentage inhibition of the development of the parasite” value (shortened to “percentage inhibition”) ([2]; Monodose (15 mg/kg on D0), D3) was 51.5%. The parasitemia ([2]; Monodose (15 mg/kg on D0), D3, controls 0.33) was 0.16%, the “percentage inhibition” value ([2]; Monodose (15 mg/kg on D0), D4) was 33.3% and the parasitemia ([2]; Monodose (15 mg/kg on D0), D4, controls 1.2) was 0.80%. For the same compound, the “percentage inhibition” value ([2]; Monodose (15 mg/kg on D0), D5) was 36.3%, the parasitemia ([2]; Monodose (15 mg/kg on D0), D5, controls 5.5) was 3.5% and the “percentage inhibition” value ([2]; Monodose (15 mg/kg on D0), D7) was 0%. For the same compound, the parasitemia ([2]; Monodose (15 mg/kg on D0), D7, controls 50) was 64%, the “percentage inhibition” value ([2]; Monodose (15 mg/kg on D0), D8) was 16.4% and the parasitemia ([2]; Monodose (15 mg/kg on D0), D8, controls 67) was 56%. The “percentage inhibition” value ([2]; Monodose (15 mg/kg on D0), D9) was 12.5%, the parasitemia ([2]; Monodose (15 mg/kg on D0), D9, controls 48) was 42% and the “percentage inhibition” value ([2]; Monodose (15 mg/kg on D0), D10) was 0%. The parasitemia ([2]; Monodose (15 mg/kg on D0), D10, controls 1) was 1%, the “parasitic formula, old trophozoite (OT)” value ([2]; Monodose, D5, control 3%) was 9% and the “parasitic formula, middle trophozoite (MT)” value (“parasitic formula … (MT)” for short) ([2]; Monodose, D5, control 7%) was 14%. For the same compound, the “parasitic formula, young trophozoite (YT)” value (from here on “parasitic formula … (YT)”) ([2]; Monodose, D5, control 17.5%) was 37%, the “parasitic formula, ring stage (R)” value ([2]; Monodose, D5, control 72.5%) was 40% and the “parasitic formula, old trophozoite (OT)” value ([2]; Monodose, D7, control 10%) was 6%. The “parasitic formula … (MT)” value ([2]; Monodose, D7, control 15%) was 14%, the “parasitic formula … (YT)” value ([2]; Monodose, D7, control 17%) was 31% and the “parasitic formula, ring stage (R)” value ([2]; Monodose, D7, control 58%) was 47%. The “parasitic formula, old trophozoite (OT)” value ([2]; Multidose, D5, control 3%) was 7%, the “parasitic formula … (MT)” value ([2]; Multidose, D5, control 7%) was 40% and the “parasitic formula … (YT)” value ([2]; Multidose, D5, control 17.5%) was 28%. The “parasitic formula, ring stage (R)” value ([2]; Multidose, D5, control 72.5%) was 25%, the “parasitic formula, old trophozoite (OT)” value ([2]; Multidose, D7, control 10%) was 93% and the “parasitic formula … (MT)” value ([2]; Multidose, D7, control 15%) was 0%. The “parasitic formula … (YT)” value ([2]; Multidose, D7, control 17%) was 0%, the “parasitic formula, ring stage (R)” value ([2]; Multidose, D7, control 58%) was 7% and the “percentage inhibition” value ([2]; Multidoses (D0-D4, total 15 mg/kg), D3) was 63.6%. The parasitemia ([2]; Multidoses (D0-D4, total 15 mg/kg), D3, controls 0.33) was 0.12%, the “percentage inhibition” value ([2]; Multidoses (D0-D4, total 15 mg/kg), D4) was 83.3% and the parasitemia ([2]; Multidoses (D0-D4, total 15 mg/kg), D4, controls 1.2) was 0.2%. The “percentage inhibition” value ([2]; Multidoses (D0-D4, total 15 mg/kg), D5) was 70.9%, the parasitemia ([2]; Multidoses (D0-D4, total 15 mg/kg), D5, controls 5.5) was 1.6% and the “percentage inhibition” value ([2]; Multidoses (D0-D4, total 15 mg/kg), D7) was 85.2%. For the same compound, the parasitemia ([2]; Multidoses (D0-D4, total 15 mg/kg), D7, controls 50) was 7.4%, the “percentage inhibition” value ([2]; Multidoses (D0-D4, total 15 mg/kg), D8) was 0% and the parasitemia ([2]; Multidoses (D0-D4, total 15 mg/kg), D8, controls 67) was 74%. For the same compound, the “percentage inhibition” value ([2]; Multidoses (D0-D4, total 15 mg/kg), D9) was 0%, the parasitemia ([2]; Multidoses (D0-D4, total 15 mg/kg), D9, controls 48) was 67% and the “percentage inhibition” value ([2]; Multidoses (D0-D4, total 15 mg/kg), D10) was 0%. For the same compound, the parasitemia ([2]; Multidoses (D0-D4, total 15 mg/kg), D10, controls 1) was 30%, the “duration of the action” value ([2]; after last injection on D4, multidose batch) was “about 3 days” and the “effect on Plasmodium from D8” value ([2]; from D8) was “apparently being no longer effected”. The “parasitemia of monodose batch versus control batch” value ([2]; monodose batch, D4) was “no difference is observed”, the IC50 (KB) was 10 µg/mL (≈ 14.1 µM) and the IC50 (P388 (p388s)) was 0.36 µg/mL (≈ 0.509 µM). For the same compound, the IC50 (NSCLC.N6-L16) was 3.43 µg/mL (≈ 4.85 µM) and the “blocking of the parasite / of parasitic proliferation” value [3] was “partial blocking of the parasite at its maturation stage”.
